{
  "source": "paper PMC5909127",
  "about": "“Optimization of a “bump-and-hole” approach to allele-selective BET bromodomain inhibition” (Chemical Science, 2018)",
  "key": {"[1]": {"target": "5-HT2A (h) (Homo sapiens, UniProt P28223)", "sequence (P28223 whole entry)": "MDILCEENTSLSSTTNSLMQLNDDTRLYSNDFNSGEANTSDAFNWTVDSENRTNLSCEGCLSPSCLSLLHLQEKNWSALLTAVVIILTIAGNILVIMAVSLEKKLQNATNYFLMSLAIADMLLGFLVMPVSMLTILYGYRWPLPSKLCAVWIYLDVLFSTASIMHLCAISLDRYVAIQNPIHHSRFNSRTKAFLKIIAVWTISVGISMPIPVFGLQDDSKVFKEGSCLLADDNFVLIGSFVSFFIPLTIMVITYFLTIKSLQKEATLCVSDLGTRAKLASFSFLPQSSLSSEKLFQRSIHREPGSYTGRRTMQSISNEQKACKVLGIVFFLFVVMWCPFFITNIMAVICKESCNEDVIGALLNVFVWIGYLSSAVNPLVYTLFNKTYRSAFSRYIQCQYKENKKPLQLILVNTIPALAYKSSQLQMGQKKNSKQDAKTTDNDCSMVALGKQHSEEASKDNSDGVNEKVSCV", "test": "CEREP ExpresSProfile", "conditions": "read-out: Mean % of control specific binding (±SD)", "source_text": "(§1) Receptor Reference Compound Mean % of control specific\nReceptor & Ion-Channel Screening\nCEREP ExpresSProfile panel"}, "[2]": {"target": "BRD4 BD2 WT (Homo sapiens, UniProt O60885)", "test": "ITC", "assay_type": "binding"}, "[3]": {"target": "5-HT2B (h) (Homo sapiens, UniProt P41595)", "test": "CEREP ExpresSProfile", "conditions": "read-out: Mean % of control specific binding (±SD)"}, "[4]": {"target": "VPAC1 (VIP1) (h) (Homo sapiens, UniProt P32241)", "sequence (P32241 31-457)": "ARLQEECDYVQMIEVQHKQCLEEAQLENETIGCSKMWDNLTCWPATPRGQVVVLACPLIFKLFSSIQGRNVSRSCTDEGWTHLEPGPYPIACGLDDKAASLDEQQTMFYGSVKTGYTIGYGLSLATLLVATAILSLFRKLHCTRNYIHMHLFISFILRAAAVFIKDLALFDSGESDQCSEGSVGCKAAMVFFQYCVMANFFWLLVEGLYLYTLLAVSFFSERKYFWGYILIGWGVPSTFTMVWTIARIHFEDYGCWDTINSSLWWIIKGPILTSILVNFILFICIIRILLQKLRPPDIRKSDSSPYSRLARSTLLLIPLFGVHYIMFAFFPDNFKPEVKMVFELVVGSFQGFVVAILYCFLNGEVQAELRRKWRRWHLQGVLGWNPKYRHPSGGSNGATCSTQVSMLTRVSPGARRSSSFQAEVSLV", "test": "CEREP ExpresSProfile", "conditions": "read-out: Mean % of control specific binding (±SD)", "source_text": "as §1\nReceptor & Ion-Channel Screening\nCEREP ExpresSProfile panel"}, "[5]": {"target": "H2 (h) (Homo sapiens, UniProt P25021)", "sequence (P25021 whole entry)": "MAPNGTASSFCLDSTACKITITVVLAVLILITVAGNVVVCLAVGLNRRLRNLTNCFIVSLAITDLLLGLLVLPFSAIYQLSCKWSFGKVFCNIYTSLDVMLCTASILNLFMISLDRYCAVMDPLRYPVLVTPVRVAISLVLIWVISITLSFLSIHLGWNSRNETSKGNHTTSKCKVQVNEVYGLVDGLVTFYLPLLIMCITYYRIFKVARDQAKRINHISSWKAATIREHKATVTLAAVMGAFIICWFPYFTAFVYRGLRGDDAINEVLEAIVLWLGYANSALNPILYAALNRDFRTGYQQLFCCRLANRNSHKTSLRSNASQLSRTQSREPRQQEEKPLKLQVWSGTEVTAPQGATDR", "test": "CEREP ExpresSProfile", "conditions": "read-out: Mean % of control specific binding (±SD)"}, "[6]": {"target": "T1, BRD4 BD1 L/V (Homo sapiens, UniProt O60885, L94V)", "test": "ITC", "assay_type": "binding", "conditions": "total compound concentration"}, "[7]": {"test_system": "Cl- channel (GABA-gated)", "test": "CEREP ExpresSProfile", "assay_type": "binding", "conditions": "1 µM"}, "[8]": {"target": "GFP-labelled WT BRD4 in U2OS cells (Homo sapiens, UniProt O60885)", "test": "FRAP", "conditions": "200 nM, 2 μM SAHA"}, "[9]": {"target": "BRD3 BD1 WT (Homo sapiens, UniProt Q15059)", "sequence (Q15059 24-144)": "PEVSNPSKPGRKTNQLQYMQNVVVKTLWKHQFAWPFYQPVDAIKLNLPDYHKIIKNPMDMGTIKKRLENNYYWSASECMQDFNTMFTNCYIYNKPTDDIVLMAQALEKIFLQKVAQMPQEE", "test": "ITC", "assay_type": "binding"}, "[10]": {"target": "NTS1 (NT1) (h) (Homo sapiens, UniProt P30989)", "sequence (P30989 whole entry)": "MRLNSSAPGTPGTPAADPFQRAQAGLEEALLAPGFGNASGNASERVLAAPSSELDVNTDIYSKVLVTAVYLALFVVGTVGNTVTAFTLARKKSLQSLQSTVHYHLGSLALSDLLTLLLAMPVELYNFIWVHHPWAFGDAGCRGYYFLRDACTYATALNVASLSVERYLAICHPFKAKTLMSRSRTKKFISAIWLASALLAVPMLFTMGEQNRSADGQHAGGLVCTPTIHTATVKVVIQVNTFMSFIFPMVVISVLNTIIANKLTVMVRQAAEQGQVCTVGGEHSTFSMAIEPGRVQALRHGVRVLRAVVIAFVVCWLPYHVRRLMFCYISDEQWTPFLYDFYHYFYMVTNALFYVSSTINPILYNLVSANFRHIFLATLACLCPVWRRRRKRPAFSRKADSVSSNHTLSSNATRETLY", "test": "CEREP ExpresSProfile", "conditions": "read-out: Mean % of control specific binding (±SD)"}, "[11]": {"target": "T2, BRD4 BD1 WT (Homo sapiens, UniProt O60885)", "test": "ITC", "assay_type": "binding"}, "[12]": {"target": "BRD4 BD2 L/V (Homo sapiens, UniProt O60885, L387V)", "test": "ITC", "assay_type": "binding"}, "[13]": {"target": "T2, BRD4 BD1 WT", "test": "competitive AlphaLISA", "assay_type": "binding", "conditions": "pIC50 BRD4 BD1 WT, separated enantiomers test; total compound concentration"}, "[14]": {"target": "BRD2 BD2 L/V (Homo sapiens, UniProt P25440, L383V)", "sequence (P25440 344-455 L383V)": "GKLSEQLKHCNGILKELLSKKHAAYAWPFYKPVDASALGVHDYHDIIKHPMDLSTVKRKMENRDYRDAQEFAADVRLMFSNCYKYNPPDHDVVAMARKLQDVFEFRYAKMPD", "test": "ITC", "assay_type": "binding"}, "[15]": {"target": "BRD3 BD2 WT (Homo sapiens, UniProt Q15059)", "sequence (Q15059 306-416)": "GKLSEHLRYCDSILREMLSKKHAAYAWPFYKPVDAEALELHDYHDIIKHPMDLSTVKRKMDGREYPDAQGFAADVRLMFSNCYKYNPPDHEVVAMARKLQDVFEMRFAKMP", "test": "ITC", "assay_type": "binding"}, "[16]": {"target": "BRD2 BD1 WT (Homo sapiens, UniProt P25440)", "sequence (P25440 71-176)": "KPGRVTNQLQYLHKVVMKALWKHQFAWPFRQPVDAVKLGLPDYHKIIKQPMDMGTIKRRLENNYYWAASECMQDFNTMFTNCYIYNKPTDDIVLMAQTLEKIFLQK", "test": "ITC", "assay_type": "binding"}, "[17]": {"test_system": "alpha 1 (non-selective)", "test": "CEREP ExpresSProfile", "assay_type": "binding", "conditions": "1 µM"}, "[18]": {"test_system": "Ca2+ channel (L, verapamil site)", "test": "CEREP ExpresSProfile", "assay_type": "binding", "conditions": "1 µM"}, "[19]": {"target": "T1, BRD4 BD1 L/V", "test": "competitive AlphaLISA", "assay_type": "binding", "conditions": "total compound concentration"}, "[20]": {"target": "CCR1 (h) (Homo sapiens, UniProt P32246)", "sequence (P32246 whole entry)": "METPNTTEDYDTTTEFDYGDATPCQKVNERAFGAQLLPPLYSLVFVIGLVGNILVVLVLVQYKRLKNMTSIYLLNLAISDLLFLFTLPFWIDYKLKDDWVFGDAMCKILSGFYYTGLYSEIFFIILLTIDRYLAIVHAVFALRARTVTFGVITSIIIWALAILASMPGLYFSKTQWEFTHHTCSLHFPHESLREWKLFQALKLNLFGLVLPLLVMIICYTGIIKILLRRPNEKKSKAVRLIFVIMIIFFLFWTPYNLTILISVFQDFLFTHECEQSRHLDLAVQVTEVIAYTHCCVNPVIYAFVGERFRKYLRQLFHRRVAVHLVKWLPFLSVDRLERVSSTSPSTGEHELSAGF", "test": "CEREP ExpresSProfile", "conditions": "read-out: Mean % of control specific binding (±SD)"}, "[21]": {"target": "beta 2 (h) (Homo sapiens, UniProt P07550)", "sequence (P07550 whole entry)": "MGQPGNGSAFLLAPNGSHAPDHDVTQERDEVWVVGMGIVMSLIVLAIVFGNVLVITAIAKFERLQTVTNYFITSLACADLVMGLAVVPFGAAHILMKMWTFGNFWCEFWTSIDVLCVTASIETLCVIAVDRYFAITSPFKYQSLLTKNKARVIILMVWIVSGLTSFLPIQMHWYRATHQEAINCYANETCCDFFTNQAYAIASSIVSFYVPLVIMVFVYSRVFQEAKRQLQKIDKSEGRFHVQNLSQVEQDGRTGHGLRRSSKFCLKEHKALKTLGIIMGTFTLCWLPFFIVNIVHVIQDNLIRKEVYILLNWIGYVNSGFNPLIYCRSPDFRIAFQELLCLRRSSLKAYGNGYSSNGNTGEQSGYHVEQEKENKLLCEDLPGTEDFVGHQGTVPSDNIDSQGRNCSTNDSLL", "test": "CEREP ExpresSProfile", "conditions": "read-out: Mean % of control specific binding (±SD)"}, "[22]": {"target": "A3 (h) (Homo sapiens, UniProt P0DMS8)", "sequence (P0DMS8 whole entry)": "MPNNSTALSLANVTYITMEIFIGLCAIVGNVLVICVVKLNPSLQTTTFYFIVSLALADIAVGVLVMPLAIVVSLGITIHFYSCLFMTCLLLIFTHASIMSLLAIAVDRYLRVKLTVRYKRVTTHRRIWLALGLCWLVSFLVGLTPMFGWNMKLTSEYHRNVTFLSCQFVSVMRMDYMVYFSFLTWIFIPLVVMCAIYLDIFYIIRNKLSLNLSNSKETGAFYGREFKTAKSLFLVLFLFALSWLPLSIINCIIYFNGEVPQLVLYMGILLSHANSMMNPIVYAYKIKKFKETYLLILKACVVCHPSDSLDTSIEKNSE", "test": "CEREP ExpresSProfile", "conditions": "read-out: Mean % of control specific binding (±SD)", "source_text": "as §1\nReceptor & Ion-Channel Screening\nCEREP ExpresSProfile panel"}, "[23]": {"target": "BRD2 BD1 L/V (Homo sapiens, UniProt P25440, L110V)", "sequence (P25440 71-176 L110V limits assumed)": "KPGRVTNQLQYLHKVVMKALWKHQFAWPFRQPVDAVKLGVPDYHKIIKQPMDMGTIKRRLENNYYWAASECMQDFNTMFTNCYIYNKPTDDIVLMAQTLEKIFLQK", "test": "ITC", "assay_type": "binding"}, "[24]": {"target": "ETA (h) (Homo sapiens, UniProt P25101)", "sequence (P25101 21-427)": "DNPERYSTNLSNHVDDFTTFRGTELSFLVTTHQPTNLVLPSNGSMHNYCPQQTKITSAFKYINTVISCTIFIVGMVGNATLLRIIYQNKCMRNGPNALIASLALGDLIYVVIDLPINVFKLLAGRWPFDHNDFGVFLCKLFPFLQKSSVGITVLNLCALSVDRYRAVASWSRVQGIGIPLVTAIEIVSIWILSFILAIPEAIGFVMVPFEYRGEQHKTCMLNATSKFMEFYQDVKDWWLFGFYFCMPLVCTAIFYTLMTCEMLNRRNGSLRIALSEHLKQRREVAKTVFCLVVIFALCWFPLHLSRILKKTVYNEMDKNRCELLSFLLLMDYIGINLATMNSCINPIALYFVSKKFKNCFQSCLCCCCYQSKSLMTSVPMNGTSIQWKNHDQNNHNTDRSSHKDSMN", "test": "CEREP ExpresSProfile", "conditions": "read-out: Mean % of control specific binding (±SD)", "source_text": "as §1\nReceptor & Ion-Channel Screening\nCEREP ExpresSProfile panel"}, "[25]": {"test_system": "L/V somatic BET bromodomains", "test": "ITC", "conditions": "L/V BET bromodomains"}, "[26]": {"target": "5-HT5a (h) (Homo sapiens, UniProt P47898)", "sequence (P47898 whole entry)": "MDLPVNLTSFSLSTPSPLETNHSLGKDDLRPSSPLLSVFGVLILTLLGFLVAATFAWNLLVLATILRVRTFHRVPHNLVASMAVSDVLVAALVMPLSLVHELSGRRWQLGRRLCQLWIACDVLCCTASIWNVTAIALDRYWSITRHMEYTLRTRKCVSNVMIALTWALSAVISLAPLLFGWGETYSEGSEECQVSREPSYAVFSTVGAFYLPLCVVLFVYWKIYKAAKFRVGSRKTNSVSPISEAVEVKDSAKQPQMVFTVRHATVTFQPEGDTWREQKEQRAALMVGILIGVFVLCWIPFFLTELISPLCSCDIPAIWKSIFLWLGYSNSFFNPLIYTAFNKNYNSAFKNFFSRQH", "test": "CEREP ExpresSProfile", "conditions": "read-out: Mean % of control specific binding (±SD)"}, "[27]": {"target": "BRD3 BD1 L/V (Homo sapiens, UniProt Q15059, L70V)", "sequence (Q15059 24-144 L70V limits assumed)": "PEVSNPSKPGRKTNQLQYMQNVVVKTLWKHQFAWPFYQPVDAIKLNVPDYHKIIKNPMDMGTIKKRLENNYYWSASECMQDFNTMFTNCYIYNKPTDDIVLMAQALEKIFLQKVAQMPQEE", "test": "ITC", "assay_type": "binding"}, "[28]": {"target": "BRD3 BD2 L/V (Homo sapiens, UniProt Q15059, L345V)", "sequence (Q15059 306-416 L345V limits assumed)": "as the sequence (Q15059 306-416) above, with L40V counted along it", "test": "ITC", "assay_type": "binding"}, "[29]": {"target": "BRD2 BD2 WT (Homo sapiens, UniProt P25440)", "sequence (P25440 344-455)": "as the sequence (P25440 344-455 L383V) above, with V40L counted along it", "test": "ITC", "assay_type": "binding"}, "[30]": {"target": "D1 (h) (Homo sapiens, UniProt P21728)", "sequence (P21728 whole entry)": "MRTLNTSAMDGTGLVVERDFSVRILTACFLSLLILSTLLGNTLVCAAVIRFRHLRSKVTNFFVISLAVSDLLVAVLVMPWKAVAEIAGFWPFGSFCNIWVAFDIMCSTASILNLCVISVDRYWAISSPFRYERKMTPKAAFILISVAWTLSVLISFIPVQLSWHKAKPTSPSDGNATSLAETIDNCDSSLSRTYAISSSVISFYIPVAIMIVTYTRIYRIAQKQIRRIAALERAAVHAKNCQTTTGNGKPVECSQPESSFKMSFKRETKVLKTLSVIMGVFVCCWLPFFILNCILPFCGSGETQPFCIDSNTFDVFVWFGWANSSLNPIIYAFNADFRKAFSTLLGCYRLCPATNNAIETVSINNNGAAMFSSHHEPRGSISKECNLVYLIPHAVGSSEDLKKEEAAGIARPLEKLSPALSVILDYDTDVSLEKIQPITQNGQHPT", "test": "CEREP ExpresSProfile", "conditions": "read-out: Mean % of control specific binding (±SD)"}},
  "data": [
    {"smiles": "COC(=O)[C@H](C)[C@@H]1N=C(c2ccc(Cl)cc2)c2ccc(OC)cc2-n2c(C)nnc21", "note": "[(2R,3S)-7]", "values": [
      {"measurement": "remaining activity at 1 µM", "setting": "[1]", "result": 100, "unit": "%"},
      {"measurement": "Kd", "setting": "[2]", "result": 29, "unit": "µM"},
      {"measurement": "remaining activity at 1 µM", "setting": "[3]", "result": 109, "unit": "%"},
      {"measurement": "remaining activity at 1 µM", "setting": "[4]", "result": 98, "unit": "%"},
      {"measurement": "remaining activity at 1 µM", "setting": "[5]", "result": 117, "unit": "%"},
      {"measurement": "ΔH BRD4 BD1 L/V", "setting": "[6]; ITC", "result": "-7.9 ± 0.1", "unit": "kcal/mol"},
      {"measurement": "Kd", "setting": "[6]; Kd BRD4 BD1 L/V, ITC of separated enantiomers and racemates", "result": "0.17 ± 0.02", "unit": "µM"},
      {"measurement": "Mean % of control specific binding (±SD)", "setting": "[7]", "result": "98 (4) %"},
      {"measurement": "blockade of WT BRD4 (FRAP)", "setting": "[8]", "result": "no statistically significant blockade"},
      {"measurement": "Kd", "setting": "[9]", "result": 7.5, "unit": "µM"},
      {"measurement": "remaining activity at 1 µM", "setting": "[10]", "result": 106, "unit": "%"},
      {"measurement": "Kd", "setting": "[11]", "result": "58 ± 4", "unit": "µM"},
      {"measurement": "ΔH BRD4 BD1 WT", "setting": "[11]; ITC, total compound concentration", "result": "-13.3 ± 0.5", "unit": "kcal/mol"},
      {"measurement": "Kd", "setting": "[12]", "result": 0.3, "unit": "µM"},
      {"measurement": "IC50", "setting": "[13]", "result": 7.94, "unit": "µM"},
      {"measurement": "Kd", "setting": "[14]", "result": 0.2, "unit": "µM"},
      {"measurement": "Kd", "setting": "[15]", "result": 24, "unit": "µM"},
      {"measurement": "Kd", "setting": "[16]", "result": 43, "unit": "µM"},
      {"measurement": "Mean % of control specific binding (±SD)", "setting": "[17]", "result": "99 (12) %"},
      {"measurement": "Mean % of control specific binding (±SD)", "setting": "[18]", "result": "108 (6) %"},
      {"measurement": "ΔpIC50 BRD4 BD1", "setting": "[19]; L/V minus WT", "result": 1.7},
      {"measurement": "IC50", "setting": "[19]; pIC50 BRD4 BD1 L/V, separated enantiomers test", "result": 0.158, "unit": "µM"},
      {"measurement": "remaining activity at 1 µM", "setting": "[20]", "result": 102, "unit": "%"},
      {"measurement": "remaining activity at 1 µM", "setting": "[21]", "result": 105, "unit": "%"},
      {"measurement": "remaining activity at 1 µM", "setting": "[22]", "result": 91, "unit": "%"},
      {"measurement": "Kd", "setting": "[23]", "result": 0.21, "unit": "µM"},
      {"measurement": "remaining activity at 1 µM", "setting": "[24]", "result": 87, "unit": "%"},
      {"measurement": "potency", "setting": "[25]", "result": "~0.2", "unit": "µM"},
      {"measurement": "remaining activity at 1 µM", "setting": "[26]", "result": 109, "unit": "%"},
      {"measurement": "Kd", "setting": "[27]", "result": 0.09, "unit": "µM"},
      {"measurement": "Kd", "setting": "[28]", "result": 0.31, "unit": "µM"},
      {"measurement": "Kd", "setting": "[29]", "result": "> 60", "unit": "µM"},
      {"measurement": "remaining activity at 1 µM", "setting": "[30]", "result": 116, "unit": "%"}
    ]}
  ]
}
